Data: ChEMBL document CHEMBL4339240, “Structural Elucidation of Presilphiperfolane-7α,8α-diol, a Bioactive Sesquiterpenoid from Pulicaria vulgaris: A Combined Approach of Solvent-Induced Chemical Shifts, GIAO Calculation of Chemical Shifts, and Full Spin Analysis” (J Nat Prod, 2019)

Experiments:
[1] = Toxicity in Artemia salina by brine shrimp lethality assay; details: in vivo
[2] = Toxicity in mouse assessed as induction of mortality; details: in vivo

## O=C1C[C@@H]2OCC=C3CN4CC[C@]56c7ccccc7N1[C@H]5[C@H]2[C@H]3C[C@H]46.O=S(=O)(O)O
[1]
  LC50: 200 µM
[2]
  LD50: < 2 mg/kg
